This passage reports EC50 and percent span inhibition results from PubChem BioAssay AID1324 (NMMLSC, 2008).

Structures are written as SMILES. pEC50: −log10 of the molar value. The source made the active and inactive calls. No rule for the calls is given here.

The target in the first assay is glutathione S-transferase (GST-GSH binding). The assay is described as follows: GST–glutathione interaction disruption – biochemical, multiplex beads, flow cytometry, HPSMTB buffer, profiling panel (AID 1324).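 Also: glutathione beads loaded with GST-green fluorescent protein and no fluorescent Bim peptide.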 The following applies: multiplex bead flow cytometry, MCF. A general note: In flow cytometry, cells or beads pass a laser one at a time.
For the compound `CCN=c1scc(C)n1/N=C/c1ccc(O)c(O)c1O`, the EC50 entry was “inactive”.

`NC(=O)c1sc2nc3c(c(-c4ccco4)c2c1N)CCC3`: the EC50 result was “inactive”.

As to `CCCCNc1nc(=S)[nH]c2cc(OC)c(OC)cc12`, the EC50 result was “inactive”.

Regarding `CN(C)[C@@H]1C(=O)C(C(=O)NCN2CCCC2)=C(O)[C@@]2(O)C(=O)C3=C(O)c4c(O)cccc4[C@@](C)(O)C3CC12` (stereo partly drawn), the EC50 result was “inactive”.

The pEC50 is −log10 of the EC50, conventionally taken in molar units. In the case of `O=C(NCCO)c1ccc2nc(-c3ccco3)c(-c3ccco3)nc2c1`, the pEC50 is 5.04.

Turning to `O=c1c2c(-c3ccccc3)csc2nc2c3ccccc3c(NCCN3CCOCC3)nn12`, the pEC50 is 6.68.

The same assay, now with this note: multiplex bead flow cytometry, MCF, active compounds read high, concentration not given here.
Take `C/C(=C\c1ccco1)C1Nc2cccc3cccc(c23)N1`: the percent span inhibition result is “inactive”.

Take `NNC(=O)COc1ccccc1F`: the percent span inhibition result is “inactive”.

As to `COc1ccccc1-n1c(-c2ccccc2)c[nH]c1=S`, the percent span inhibition entry is “inactive”.

On to `Cc1cc2n(c1)CCn1c(C)ccc1-2`, for which the percent span inhibition result was “inactive”.

In the case of `CNc1ccc(Br)cc(C(=O)/C=C/c2cc(OC)ccc2OC)c1=O`, the percent span inhibition entry is “inactive”.

On to `CCc1ccc(NC(=O)Cc2ccc(OC)cc2)cc1`, for which the percent span inhibition entry was “inactive”.

Turning to `Cc1cccc(N2CCN(C(=S)Nc3ccc4nc(N5CCN(C)CC5)cc(C)c4c3)CC2)c1C`, the percent span inhibition result was “inactive”.

For the compound `OCCN1CCN(CCCc2c3c(cc4c2CCC4)CCC3)CC1`, the percent span inhibition result was “inactive”.

Take `Cc1ccc(-c2cc(C(=O)Nc3cc(C(=O)O)ccc3C)c3ccccc3n2)cc1`: the percent span inhibition result is “inactive”.

Consider `CN1CCS/C1=C/C=C1/SC(=S)N(Cc2ccccc2)C1=O`, for which the percent span inhibition entry is “inactive”.

Regarding `Cc1cc(C)c(C)c(S(=O)(=O)N2CCN(CC(=O)NC(=O)NCc3ccccc3)CC2)c1C`, the percent span inhibition entry was “inactive”.

Turning to `Cc1ccc2c(c1)C1CN(C)CCC1N2C(=O)Nc1cccc(Cl)c1` (stereo not drawn), the percent span inhibition result is “inactive”.

`COc1cc2nc(=S)n(CCCN3CCOCC3)c(N)c2cc1OC`: the percent span inhibition result was “inactive”.

Regarding `CCOC(=O)/C(=C\c1ccc(Cl)cc1)c1nc2sc(C)c(C)c2c(=O)[nH]1`, the percent span inhibition entry is “inactive”.

For the compound `O=C(c1cc(=O)c2ccccc2o1)N1CCN(c2ccccc2F)CC1`, the percent span inhibition entry is “inactive”.

Turning to `O=C(O)c1cccc(NC2=C(Cl)C(=O)c3ccccc3C2=O)c1`, the percent span inhibition result is “inactive”.

For the compound `CC(C)=C1C(=O)NN(c2ccc(C)c(Cl)c2)C1=O`, the percent span inhibition result is “inactive”.

As for `COc1ccc(NC(=O)c2cccs2)cc1`, the percent span inhibition entry is “inactive”.

As to `COc1cc(C2Nc3cccc4cccc(c34)N2)cc(OC)c1O`, the percent span inhibition entry was “inactive”.

As for `Cc1cc(N2CCN(C)CC2)nc2ccc(NC(=S)N3CCN(c4ccc(F)cc4)CC3)cc12`, the percent span inhibition entry is “inactive”.

`Nc1c(C(=O)NCc2ccco2)sc2nc3c(cc12)C(=O)CCC3`: the percent span inhibition entry was “inactive”.

Turning to `O=C(Nc1cccc(Cl)c1)Nc1ccc(Cl)cn1`, the percent span inhibition result is “inactive”.

Take `Cc1nonc1NC(=O)CSc1nnc(-c2ccoc2C)n1C`: the percent span inhibition entry was “inactive”.

Take `CCn1c(C)c(/C=N/Nc2nc3ccccc3s2)c2ccccc21`: the percent span inhibition entry was “inactive”.

On to `COc1ccc(CC(=O)Nc2ccccc2Oc2ccccc2)cc1`, for which the percent span inhibition entry was “inactive”.

Consider `CCN(CC)c1ccc(NC(=O)c2cccc(C)c2)cc1S(=O)(=O)Nc1ccccc1OC`, for which the percent span inhibition result is “inactive”.

For the compound `CCOc1ncccc1C(=O)OC(C)C(=O)Nc1ccc(CC)cc1` (stereo not drawn), the percent span inhibition result was “inactive”.

For `COc1ccc(NC(=O)c2ccc3c(c2)NC(=O)CS3)cc1S(=O)(=O)Nc1ccc(Br)cc1`, the percent span inhibition result was “inactive”.

For `Nc1ccc(N2CCN(CCCCN3C(=O)C4CCCN4C3=O)CC2)cc1` (stereo not drawn), the percent span inhibition result is “inactive”.

For `COc1ccc2oc(-c3ccccc3)c(C(=O)N3CCOCC3)c2c1`, the percent span inhibition result was “inactive”.

On to `Cc1ccc(-c2ccc(/C=C/C(=O)c3ccccc3)o2)cc1`, for which the percent span inhibition result is “inactive”.

Turning to `O=C1C(Cl)=C(Nc2ccccc2O)C(=O)N1c1ccccc1`, the percent span inhibition entry is “inactive”.

In the case of `Clc1ccc2c(N/N=C/c3ccccc3Br)ccnc2c1`, the percent span inhibition entry is “inactive”.

With `Cc1cc[n+]2cc(-c3cccc([N+](=O)[O-])c3)c(-c3cccc([N+](=O)[O-])c3)cc2c1`, the percent span inhibition result is “inactive”.

As for `CC(C)(C)c1nc(NCCN2CCOCC2)c2nnn(Cc3ccccc3Cl)c2n1`, the percent span inhibition entry is “inactive”.

As to `Cc1cccc(OCC(=O)NCC(=O)N/N=C/c2cc(Br)ccc2OCc2ccccc2)c1`, the percent span inhibition entry was “inactive”.

For `O=C(Cc1ccccc1)N/N=C/c1cccn1-c1ccc([N+](=O)[O-])cc1`, the percent span inhibition entry was “inactive”.

For `Cc1ccc(-c2cc(-c3ccc(F)cc3)c(C#N)c(N)n2)o1`, the percent span inhibition entry was “inactive”.

As for `CCN(CC)c1ccc(-c2nn3c(-c4ccccc4OC)nnc3s2)cc1`, the percent span inhibition result is “inactive”.

For the compound `Fc1ccccc1/C=C1\CCCC2=C1NC(=S)NC2c1ccccc1F` (stereo not drawn), the percent span inhibition entry is “inactive”.

Take `CCOc1ccc(NCc2ccccc2OCc2cccc(F)c2)cc1`: the percent span inhibition result is “inactive”.

Turning to `Cc1ccc(-c2ccc(CCC(=O)O)n2NC(=O)c2cccs2)cc1`, the percent span inhibition entry is “inactive”.

With `CCOc1c(Cl)cc(CNc2ccc(N3CCCC3)cc2)cc1OC`, the percent span inhibition result was “inactive”.

Consider `O=C1C(=O)c2ccc(-c3ccccc3)cc2-c2ccccc21`, for which the percent span inhibition entry is “inactive”.

Consider `Cc1cc(NC(=O)CSc2nnc(-c3cccnc3)n2Cc2ccccc2)no1`, for which the percent span inhibition entry is “inactive”.

As to `O=C(CSc1ccc(-c2ccccc2)nn1)NCc1ccco1`, the percent span inhibition result is “inactive”.

As for `O=C1Nc2ccc([N+](=O)[O-])cc2OC1CCN1CCN(Cc2ccc3c(c2)OCO3)CC1` (stereo not drawn), the percent span inhibition entry was “inactive”.

On to `CCOC(=O)CSC1=NC(=O)/C(=C\c2ccc(OC(C)=O)cc2)S1`, for which the percent span inhibition result is “inactive”.

Take `COc1ccc(-c2nnc(SCC(=O)Nc3nc4ccccc4s3)n2C)cc1`: the percent span inhibition result was “inactive”.

As for `c1csc(C2=Nn3c(nnc3-c3ccncc3)SC2)c1`, the percent span inhibition result is “inactive”.

For `CC(=O)N1CCN(C(=O)c2ccc(-n3c(C)ccc3C)cc2)CC1`, the percent span inhibition result is “inactive”.

In the case of `Cc1ccc(NC(=O)C/C(N)=N/OC(=O)c2ccccc2)cc1`, the percent span inhibition result is “inactive”.

Consider `Cc1cc(C)cc(-n2c(C)nc3cc(C(=O)O)ccc32)c1`, for which the percent span inhibition result was “inactive”.

Turning to `Cc1csc(SCCn2c(N3CCN(c4ccccc4)CC3)nc3c2c(=O)[nH]c(=O)n3C)n1`, the percent span inhibition entry is “inactive”.

On to `COc1ccc(/C=C(/C(=O)c2cccs2)N2C=CC=CC2=C(C#N)C#N)cc1`, for which the percent span inhibition result was “inactive”.

`O=C(NCCc1ccccc1)c1ccc2nc(-c3ccco3)c(-c3ccco3)nc2c1`: the percent span inhibition result was “inactive”.

With `O=C(Nc1ccccc1N1CCOCC1)c1cccs1`, the percent span inhibition entry was “inactive”.

`Cc1ccc(Nc2nc(-c3ccccc3)c(CC(=O)O)s2)cc1`: the percent span inhibition result is “inactive”.

Consider `COc1ccccc1N(C)S(=O)(=O)c1ccc(C(=O)OCC(N)=O)cc1`, for which the percent span inhibition entry is “inactive”.

On to `Cc1cc(C)nc(SCc2cc(=O)c(OC(=O)c3cccc([N+](=O)[O-])c3)co2)n1`, for which the percent span inhibition result was “inactive”.

As to `O=C(Nc1ccccc1)Nc1ccc2ncoc2c1`, the percent span inhibition result is “inactive”.

As for `O=C1NC(=S)S/C1=C/c1ccc(N2CCOCC2)o1`, the percent span inhibition entry was “inactive”.

As for `Fc1ccc(Cn2nnnc2C(c2ccc(Cl)cc2)N2CCSCC2)cc1` (stereo not drawn), the percent span inhibition result was “inactive”.

Turning to `O=C(Nc1nnc(SCc2ccccn2)s1)C1CC(=O)N(c2ccccc2)C1` (stereo not drawn), the percent span inhibition result was “inactive”.

In the case of `O=C(c1cccc(Br)c1)N1CCN(c2cnn(-c3ccccc3)c(=O)c2Cl)CC1`, the percent span inhibition result was “inactive”.

On to `C=CCN1C(=O)/C(=C/c2ccsc2)SC1=S`, for which the percent span inhibition result was “inactive”.

With `Cc1csc(Nc2ccccc2C(F)(F)F)n1`, the percent span inhibition result is “inactive”.

Take `O=[N+]([O-])c1c(NCCCO)cc(Sc2nc3ccccc3s2)c2nonc12`: the percent span inhibition entry is “inactive”.

Consider `Cc1ccc(Nc2nc(CSc3nnc(-c4cccnc4)n3-c3ccccc3C)cs2)cc1`, for which the percent span inhibition result was “inactive”.

Regarding `Cc1cc(-c2nn(-c3ccccc3)cc2/C=C2\SC(N)=NC2=O)ccc1OC(C)C`, the percent span inhibition entry is “inactive”.

For the compound `CCCn1c(SCC(=O)Nc2ccccc2-c2ccccc2)nnc1-c1ccoc1C`, the percent span inhibition result was “inactive”.

On to `O=C(N/N=C/c1ccncc1)c1cccc(NC(=O)c2ccccc2Cl)c1`, for which the percent span inhibition result is “inactive”.

Take `CCOc1ccc(C2=Nn3c(nnc3-c3ccccn3)SC2)cc1`: the percent span inhibition result is “inactive”.

For `COC(=O)c1ccc(-n2nnnc2SCC(=O)Nc2cc(OC)ccc2OC)cc1`, the percent span inhibition result was “inactive”.

Take `COc1cc(C2Nc3cccc4cccc(c34)N2)ccc1OC(C)=O`: the percent span inhibition entry was “inactive”.

As for `Cc1ccc(C(=O)N(CCCN(C)C)c2nc3ccc(Cl)cc3s2)cc1C`, the percent span inhibition entry was “inactive”.

Take `CC1(C)Cc2c(ccc3ccccc23)/C(=C/C(=O)N2CCCCC2)N1`: the percent span inhibition result was “inactive”.

Regarding `COc1ccc(S(=O)(=O)NCCSc2ccc(Cl)cc2)cc1OC`, the percent span inhibition entry was “inactive”.

For `CCOc1ccc2nc(SCC(=O)N3c4ccccc4Sc4ccccc43)c(C#N)cc2c1`, the percent span inhibition entry is “inactive”.

`Cc1ccc(S(=O)(=O)N2CCCCC2)cc1NC(=O)COC(=O)c1ccccc1F`: the percent span inhibition result is “inactive”.

Regarding `Cc1ccc(-c2cc(C(=O)Nc3nccs3)c3ccccc3n2)o1`, the percent span inhibition entry was “inactive”.

Take `COCCN=c1scc(-c2ccco2)n1/N=C/c1ccc(O)c(O)c1O`: the percent span inhibition entry is “inactive”.
